{"source": "patent US20100080860A1", "about": "“Application of short-chain monocarboxylic acids for crop protection” (UNIVERSITAT JAUME I, priority 2005, published 2010)", "key": {"[1]": {"test_system": "B. cinerea", "experiment": "Spray treatment of tomato plants with hexanoic acid potassium salt, B. cinerea inoculation", "type": "in vivo, Botrytis cinerea", "conditions": "for % inhibition of infection versus control: 72 h", "description": "Hexanoic acid potassium salt was provided by preparing a mole-to-mole solution of hexanoic acid with K2CO3. A concentrated solution was prepared, adjusted to pH 6, and then dilutions were performed in order to provide in-use concentrations, namely, 20 mM, 10 mM, 6 mM and 3 mM.\nThe plants were treated with the formed salt by spray application and then left to dry for 30 minutes. Afterwards, treated leaves, which were previously incubated for 2 h in Gamborg medium supplemented with sucrose and phosphate, were inoculated with 5 μl of a suspension containing 10^6 spores/ml of B. cinerea, and then stored in a high-humidity chamber at 25° C. for 72 h.\nThe infection diameter was measured and, finally, the germination percentage was determined."}, "[2]": {"test_system": "B. cinerea spores", "experiment": "Direct antimicrobial effect in vitro: spore germination, mycelium growth, MIC/MFC in PDB", "type": "cell-based, Botrytis cinerea", "description": "Test mixture contained 4×10^6 conidia/ml PDB (potatodextrose broth, Difco, Detroit, Mich., USA). Treatments (hexanoic acid and heptanoic acid) were added to PDB from stock solutions in order to obtain the different concentrations to be used (0.06 to 30 mM). Medium pH was adjusted to 3.6-5.5 using HCl or NaOH. One ml of each mixture was dispensed into sterile 24-well microplates and then incubated at 20° C. under gentle stirring. Percentage of germinated spores was calculated after 20 h incubation by staining with 0.1% lacto-fucshin (1:1) followed by microscopic observation of 100 spores. Spores were considered to be germinated when the length of germ tube was equal to or greater than spore. For assessment of efficacy in long-term treatments, test culture was left for a 7-day incubation period under previously described conditions, and mycelium development was assessed as follows: 3 ml of each culture were vacuum-filtered through pre-weighed nitrocellulose filters (Millipore, ref. HAWP02500). The filters were dried at 85° C. until weight was constant at room temperature.\nFor measurement of treatment effects on mycelium growth, 9×10^6 spores were inoculated to a final volume of 150 ml PDB. After 20 h incubation, spores were examined for germination by microscopic analysis, then treatments were added, and pH was adjusted to 5.5. Cultures were incubated at 20° C. under gentle stirring. After 96 h, mycelium growth was measured by determining dry weight, as described herein. […] After MIC determination, minimum fungicidal concentration (MFC) was measured as follows. After 20 h incubation, an aliquot of the cultures, in which no growth had been detected, was taken, then washed three times and added to a fresh medium without added treatment. After 20 h incubation, under previously described conditions, the germination percentage was estimated. MFC is the minimum concentration of test compound at which microorganisms are not recovered."}, "[3]": {"test_system": "A. Brassicicola", "experiment": "Hexanoic acid root application in soil cultivation, protection of Arabidopsis plants against A. Brassicicola", "type": "in vivo, Alternaria brassicicola", "conditions": "0.8 mM", "description": "(§1) Experiments were performed with 5-week-old Arabidopsis plants cultivated in soil. Two weeks after germination, the plants were transplanted into single pots and kept at a temperature of 20° C. day/18° C. night and 8.5 h light cycle for 24 h and 60% relative humidity (RH).\n(§2) The plants were treated with different concentrations of hexanoic acid (0.6 mM, 0.8 mM and 1 mM) and inoculated with 6 μl of 2.5×10^4 spores/mL Botrytis cinerea and 2×10^6 spores/mL Alternaria brassicicola.\n(§3) Sampling was performed at 48, 72, 96 and 120 hours after inoculation."}, "[4]": {"test_system": "B. cinerea", "experiment": "Hexanoic acid root application in soil cultivation, protection of tomato plants against B. cinerea", "type": "in vivo, Botrytis cinerea", "conditions": "control: water", "description": "(§4) Experiments were performed with 4-week-old tomato plants (Cv. Ailsa Craig) in hydroponic cultivation. Before initiation of treatment, the plants were maintained in hydroponic cultivation for 1 week for habituation under such cultivation conditions. Treatment comprised the addition of hexanoic acid to a nutrient solution (Hoagland solution) at the following concentrations: 0.06 mM, 0.6 mM, 3 mM, 6 mM, 16 mM and 20 mM, pH was adjusted to 6. After 48 hours of treatment, the leaflets of the third and fourth true leaves were inoculated with 5 μl of a suspension containing 10^6 conidia B. cinerea/ml. Spores had previously been incubated in Gamborg medium (Duchefa Biochemie, The Netherlands) supplemented with sucrose and phosphate, over a period of 2 h. Spores were inoculated in this medium. For each treatment, 10 plants were used, which were kept under humidity- and temperature-controlled conditions (80% RH, 21° C.). Sampling was performed at 48, 72, 96 and 120 hours after inoculation.\nPlants were cultivated in soil and the solutions of hexanoic acid, at different concentrations, were prepared and applied in the same manner as that described above. Control was water."}, "[5]": {"test_system": "B. cinerea", "experiment": "Hexanoic acid root application in hydroponic cultivation, protection of tomato plants against B. cinerea", "type": "in vivo, Botrytis cinerea", "conditions": "control: water", "description": "as §4"}, "[6]": {"test_system": "B. cinerea", "experiment": "Hexanoic acid root application in soil cultivation, protection of Arabidopsis plants against B. cinerea", "type": "in vivo, Botrytis cinerea", "description": "as §1, §2, §3"}, "[7]": {"test_system": "Peronospora parasitica", "experiment": "Induced resistance in Arabidopsis thaliana against Peronospora parasitica", "type": "in vivo"}, "[8]": {"test_system": "Pseudomonas syringe", "experiment": "Induced resistance in Arabidopsis thaliana against Pseudomonas syringe", "type": "in vivo"}, "[9]": {"test_system": "Botrytis cinerea", "experiment": "Post-harvest treatment: combined inoculation of hexanoic acid and Botrytis cinerea spores into tomato fruits", "type": "in vivo", "conditions": "combined inoculation with spores, preliminary studies", "description": "Preliminary studies were also performed on the application of hexanoic acid for post-harvest treatment."}, "[10]": {"test_system": "B. cinerea", "experiment": "Spray application of hexanoic acid on tomato plants against B. cinerea", "type": "in vivo, Botrytis cinerea", "conditions": "for % inhibition of invention versus control: spray application, tomato plants"}}, "note": "“And” between values parts separate entries of the source, which are not always exact repeats. Identical values can stand only once.", "data": [{"smiles": "CCCCCC(=O)[O-].[K+]", "note": "[Hexanoic acid potassium salt]", "values": [{"measurement": "% inhibition of infection versus control", "setting": "[1]; 6 mM", "result": 52.1, "unit": "%"}, {"measurement": "% inhibition of infection versus control", "setting": "[1]; 10 mM", "result": 61.3, "unit": "%"}, {"measurement": "% inhibition of infection versus control", "setting": "[1]; 20 mM, listed as potassium salt, potassium salt", "result": 80, "unit": "%"}, {"measurement": "% inhibition of infection versus control", "setting": "[1]; 20 mM, potassium salt", "result": 80.3, "unit": "%"}, {"measurement": "% inhibition of infection versus control", "setting": "[1]; 3M", "result": 49.8, "unit": "%"}, {"measurement": "inhibition at 3000 µM", "setting": "[1]; Botrytis cinerea, 3 mM, read-out: inhibition of fungal infection", "result": "~50", "unit": "%"}]}, {"smiles": "CCCCCCC(=O)O", "note": "[heptanoic acid]", "values": [{"measurement": "concentration from which spore germination is significantly decreased / inhibited", "setting": "[2]; B. cinerea spores in vitro", "result": "≥ 6", "unit": "mM"}, {"measurement": "effect on spore germination compared with hexanoic acid", "setting": "[2]; B. cinerea spores in vitro", "result": "the same at the same concentration range"}, {"measurement": "germ tube development", "setting": "[2]; B. cinerea spores in vitro", "result": "entirely prevents germ tube development"}]}, {"smiles": "CCCCCC(=O)O", "note": "[hexanoic acid]", "values": [{"measurement": "% inhibition of infection versus control", "setting": "[3]; time after inoculation 48", "result": 54.5, "unit": "%"}, {"measurement": "% inhibition of infection versus control", "setting": "[3]; time after inoculation 72", "result": 40.5, "unit": "%"}, {"measurement": "% inhibition of infection versus control", "setting": "[3]; time after inoculation 96", "result": 6.3, "unit": "%"}, {"measurement": "concentration from which spore germination is significantly decreased / inhibited", "setting": "[2]; B. cinerea spores in vitro", "result": "≥ 3", "unit": "mM"}, {"measurement": "concentration that entirely inhibits germination", "setting": "[2]; B. cinerea spores in vitro", "result": 16, "unit": "mM"}, {"measurement": "MFC", "setting": "[2]; Botrytis cinerea, 20 h, read-out: minimum fungicidal concentration (MFC)", "result": 16, "unit": "mM"}, {"measurement": "reversibility of the inhibitor effect after spore washing", "setting": "[2]; spores treated at MFC, treatment removed by washing", "result": "irreversible fungicidal effect"}, {"measurement": "mycelium development in already germinated spores", "setting": "[2]; treatment added after germination", "result": "inhibits mycelium development"}, {"measurement": "% inhibition of infection versus control", "setting": "[4]; 0.06 mM", "result": 60.15, "unit": "%"}, {"measurement": "% inhibition of infection versus control", "setting": "[4]; 0.6 mM", "result": 49.77, "unit": "%"}, {"measurement": "% inhibition of infection versus control", "setting": "[5]; 0.06 mM", "result": 35.57, "unit": "%"}, {"measurement": "% inhibition of infection versus control", "setting": "[5]; 0.6 mM", "result": 48.90, "unit": "%"}, {"measurement": "% inhibition of infection versus control", "setting": "[5]; 3 mM", "result": 64.06, "unit": "%"}, {"measurement": "% inhibition of infection versus control", "setting": "[5]; 6 mM", "result": 61.98, "unit": "%"}, {"measurement": "% inhibition of infection versus control", "setting": "[5]; 16 mM", "result": 63.52, "unit": "%"}, {"measurement": "% inhibition of infection versus control", "setting": "[5]; 20 mM", "result": 53.60, "unit": "%"}, {"measurement": "% inhibition of infection versus control", "setting": "[6]; 0.6 mM", "result": 10, "unit": "%"}, {"measurement": "% inhibition of infection versus control", "setting": "[6]; 0.8 mM", "result": 28, "unit": "%"}, {"measurement": "% inhibition of infection versus control", "setting": "[6]; 1 mM", "result": 38, "unit": "%"}, {"measurement": "induced resistance", "setting": "[7]", "result": "induced resistance"}, {"measurement": "induced resistance", "setting": "[8]", "result": "induced resistance"}, {"measurement": "infection rate of treated fruits", "setting": "[9]", "result": "significant decrease in the infection rate"}, {"measurement": "% inhibition of invention versus control", "setting": "[10]; 3 mM", "result": 7.63, "unit": "%"}, {"measurement": "% inhibition of invention versus control", "setting": "[10]; 16 mM", "result": "67% and 66.85%"}, {"measurement": "% inhibition of invention versus control", "setting": "[10]; 20 mM", "result": "81% and 81.47%"}, {"measurement": "curative effect in plants already inoculated", "setting": "[10]; plants already inoculated with B. cinerea, preliminary results", "result": "restrains the progress of necrosis"}]}]}
